Data on two compounds can be found in patent publication US20110033850A1, “COMPOSITIONS AND METHODS FOR THE IDENTIFICATION OF INHIBITORS OF RETROVIRAL INFECTION” (priority 2007, published 2011).

Structures are written as SMILES.

The test system of this assay is HIV. The assay is described as follows: anti-HIV activity in freshly harvested PBMC cells (secondary HIV assay). Format: cell-based. The method, then:
These compounds were analyzed for anti-HIV activity in freshly harvested PBMC cells. Of the 30 tested compounds, 15 were active at a concentration of less than 100 ˜M (the highest tested concentration). Of these 15 compounds, 9 were […] to the PBMC cells at the 100 ˜M concentration; thus, an absolute conclusion regarding the differential toxicity to HIV and PBMC cells cannot be drawn with these 9 compounds. […]

`CN(C)c1cccc2c(C=O)ccc(N(C)C)c12`: the anti-HIV activity was 0.022 µM.

Compound `O=C1c2ccccc2C(=O)c2c1nc1ccccn21` [naphtho[2′,3′,4,5]imidazo[1,2-a]pyridine-6,11-dione] had an anti-HIV activity of 0.63 µM.
